Test results taken from patent publication US11285156B2, “Substituted piperazines as KRAS G12C inhibitors” (Amgen Inc., priority 2018, dated 2022).
Read-outs that look alike come from different tables or passages of the source.

Tests used:
[1] = tested on: Phosphorylation of ERK1/2 in A549 cells; assay: Phospho-ERK1/2 MSD assay in A549 cells; format: cell-based; conditions: read-out: p-ERK IC50 (2 h, A549; μM), 2 h compound treatment, A549 cells, EGF stimulated
In short: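 Readout: MSD phospho-ERK1/2 signal after compound (2 or 4 h) and 10 min EGF stimulation at 10 ng/mL.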

[2] = tested on: Phosphorylation of ERK1/2 in MIA PaCa-2 cells; assay: Phospho-ERK1/2 MSD assay in MIA PaCa-2 cells; format: cell-based; conditions: read-out: p-ERK IC50 (2 h, MiaPaCa-2; μM), 2 h compound treatment, MIA PaCa-2 cells, EGF stimulated
In short: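 Phospho-ERK1/2 measured by MSD electrochemiluminescence kit in RIPA lysates of MIA PaCa-2 cells. Cells were treated with compound titrations for 2 or 4 h at 37 °C, 5% CO2, followed by a 10 min pulse of 10 ng/mL EGF.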

[3] = target: GDP-bound KRAS protein (aa 1-169), containing both G12C and C118A amino acid substitutions (Homo sapiens (Human), UniProt P01116, C118A/G12C); assay: Coupled nucleotide exchange assay (SOS-mediated nucleotide exchange, AlphaScreen); format: biochemical; conditions: 5 min compound pre-incubation; for IC50: read-out: Coupled exchange IC50 (5 min; μM)
Chain of GDP-bound KRAS protein (aa 1-169), containing both G12C and C118A amino acid substitutions (P01116 other isoform, or with tags, fused parts or gaps G12C/C118A): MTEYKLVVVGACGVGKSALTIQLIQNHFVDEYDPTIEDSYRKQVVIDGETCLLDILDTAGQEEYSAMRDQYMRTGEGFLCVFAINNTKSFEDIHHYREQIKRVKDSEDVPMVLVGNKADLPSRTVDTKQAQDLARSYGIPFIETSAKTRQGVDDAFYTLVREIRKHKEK

Structure (SMILES)	IC50 ([1]; Homo sapiens, A549, 2 h) [µM]	IC50 ([2]; Homo sapiens, MIA PaCa-2, 2 h) [µM]	IC50 [3] [µM]	IC50 [1] [µM]	IC50 [2] [µM]	Coupled exchange IC50 (5 min; μM) [3] [µM]
C=CC(=O)N1C[C@H](C)N(c2nc(=O)n(-c3c(C(C)C)nc(Br)nc3C(C)C)c3nc(-c4ccccc4F)c(Cl)cc23)C[C@H]1C [Example 106-1, 4-((2S,5R)-4-Acryloyl-2,5-dimethylpiperazin-1-yl)-1-(2-bromo-4,6-diisopropylpyrimidin-5-yl)-6-chloro-7-(2-fluorophenyl)pyrido[2,3-d]pyrimidin-2(1H)-one]	4.54	0.096	0.08	–	–	–
C#Cc1cccc(-c2nc3c(cc2Cl)c(N2C[C@@H](C)N(C(=O)C=C)C[C@@H]2C)nc(=O)n3-c2c(C)ccnc2C(C)C)c1 (atropisomer, axis not shown; (M)) [Example 92-48, (M)-6-Chloro-4-[(2S,5R)-2,5-dimethyl-4-prop-2-enoyl-piperazin-1-yl]-7-(3-ethynylphenyl)-1-(2-isopropyl-4-methyl-3-pyridyl)pyrido [2,3-d]pyrimidin-2-one]	> 7.5	0.365	0.247	–	–	–
C=CC(=O)N1C[C@H](C)N(c2nc(=O)n(-c3c(C)ccnc3C(C)C)c3nc(-c4ccccc4C(=O)NC)c(Cl)cc23)C[C@H]1C (atropisomer, axis not shown; (M)) [Example 92-27, (M)-2-[6-Chloro-4-[(2S,5R)-2,5-dimethyl-4-prop-2-enoyl-piperazin-1-yl]-1-(2-isopropyl-4-methyl-3-pyridyl)-2-oxo-pyrido[2,3-d]pyrimidin-7-yl]-N-methyl-benzamide]	> 7.5	0.735	0.149	–	–	–
C=CC(=O)N1C[C@H](C)N(c2nc(=O)n3c4nc(c(Cl)cc24)-c2ccccc2OC/C=C/Cc2ccccc2-3)C[C@H]1C [Example 146-4, 20-chloro-23-((2S,5R)-2,5-dimethyl-4-(2-propenoyl)-1-piperazinyl)-12-oxa-1,24,27-triazapentacyclo[17.6.2.0~2,7~.0~13,18~.0~22,26~]heptacosa-2,4,6,9,13,15,17,19,21,23,26-undecaen-25-one]	> 7.5	4.19	8.13	–	–	–
C=CC(=O)N1C[C@H](C)N(c2nc(=O)n(-c3c(CC)ccnc3C(C)C)c3nc(-c4ccccc4F)c(Cl)cc23)C[C@H]1C (single isomer, unassigned) [Example 55-58-2]	–	–	0.092	> 7.5	0.101	–
C=CC(=O)N1CCN(c2nc(=O)n(-c3c(C)ccnc3C(C)C)c3nc(-c4ccccc4F)c(Cl)cc23)CC1CC#N (atropisomer, axis not shown; (M)) [Example 145-2-1, (M)-2-[4-[6-Chloro-7-(2-fluorophenyl)-1-(2-isopropyl-4-methyl-3-pyridyl)-2-oxo-pyrido[2,3-d]pyrimidin-4-yl]-1-prop-2-enoyl-piperazin-2-yl]acetonitrile]	–	–	0.294	> 7.5	0.356	–
C=CC(=O)N1C[C@H](C)N(c2nc(=O)n(-c3c(C)cc(CN(C)C)cc3C(C)C)c3nc(-c4ccccc4F)c(F)cc23)C[C@H]1C (single isomer, unassigned) [Example 80-20-2]	–	–	0.368	> 7.5	0.295	–
C=CC(=O)N1C[C@H](C)N(c2nc(=O)n(-c3c(C)ccnc3C(C)C)c3nc(-c4ccc(F)cc4)c(Cl)cc23)C[C@H]1C (atropisomer, axis not shown; (M)) [Example 92-57, (M)-6-Chloro-4-[(2S,5R)-2,5-dimethyl-4-prop-2-enoyl-piperazin-1-yl]-7-(4-fluorophenyl)-1-(2-isopropyl-4-methyl-3-pyridyl)pyrido [2,3-d]pyrimidin-2-one]	> 7.5	0.126	0.126	–	–	–
C=CC(=O)N1C[C@H](C)N(c2nc(=O)n(-c3c(C)ccnc3C(C)C)c3nc(-c4cccc(F)c4)c(Cl)cc23)C[C@H]1C (atropisomer, axis not shown; (M)) [Example 92-52, (M)-6-Chloro-4-[(2S,5R)-2,5-dimethyl-4-prop-2-enoyl-piperazin-1-yl]-7-(3-fluorophenyl)-1-(2-isopropyl-4-methyl-3-pyridyl)pyrido [2,3-d]pyrimidin-2-one]	> 7.5	0.196	0.161	–	–	–
C=CC(=O)N1CCN(c2nc(CN3CCOCC3)c(-c3ccccc3C(C)C)c3nc(-c4ccccc4F)c(Cl)cc23)CC1 [Example 181, 1-(4-(3-Chloro-2-(2-fluorophenyl)-8-(2-isopropylphenyl)-7-(morpholinomethyl)-1,6-naphthyridin-5-yl)piperazin-1-yl)prop-2-en-1-one]	> 7.5	10	4.53	–	–	–
C=CC(=O)N1CCN(c2nc(=O)n(-c3c(CN(C)C)cccc3C(C)C)c3nc(-c4ccccc4F)c(Cl)cc23)[C@@H](C)C1 [Example 80-13, 6-Chloro-1-[2-[(dimethylamino)methyl]-6-isopropyl-phenyl]-7-(2-fluorophenyl)-4-[(2S)-2-methyl-4-prop-2-enoyl-piperazin-1-yl]pyrido[2,3-d]pyrimidin-2-one]	> 7.5	0.053	0.043	–	–	–
C=CC(=O)N1C[C@H](C)N(c2nc(=O)n(-c3c(C)nc(C(=C)C)nc3C(C)C)c3nc(-c4ccccc4F)c(Cl)cc23)C[C@H]1C (single isomer, unassigned) [Example 201]	5.05	0.205	–	–	–	0.075
C=CC(=O)N1CCN(c2nc(=O)n(-c3c(C)ccnc3C(C)C)c3nc(-c4c(N)cccc4F)c(Cl)cc23)C[C@H]1C (atropisomer, axis not shown; (M)) [Example 92-2, (M)-7-(2-Amino-6-fluoro-phenyl)-6-chloro-1-(2-isopropyl-4-methyl-3-pyridyl)-4-[(3R)-3-methyl-4-prop-2-enoyl-piperazin-1-yl]pyrido[2,3-d]pyrimidin-2-one]	–	–	0.024	> 7.5	0.035	–
C=CC(=O)N1C[C@H](C)N(c2nc(=O)n(-c3c(C)ccnc3C(C)C)c3nc(-c4ccccc4C(C)C)c(Cl)cc23)C[C@H]1C (atropisomer, axis not shown; (M)) [Example 92-1, (M)-6-Chloro-4-[(2S,5R)-2,5-dimethyl-4-prop-2-enoyl-piperazin-1-yl]-1-(2-isopropyl-4-methyl-3-pyridyl)-7-(2-isopropylphenyl)pyrido[2,3-d]pyrimidin-2-one]	–	–	0.016	> 7.5	0.014	–
C=CC(=O)N1C[C@H](C)N(c2nc(=O)n(-c3c(C(C)C)cnn3C(C)C)c3nc(-c4ccccc4F)c(Cl)cc23)C[C@H]1C (single isomer, unassigned) [Example 100-1-2]	–	–	0.062	> 7.5	0.098	–
C=CC(=O)N1[C@H](C)CN(c2nc(=O)n(-c3c(C(C)C)ccnc3C(C)C)c3nc(-c4ccccc4C)c(Cl)cc23)C[C@@H]1C [Example 125-11, 6-Chloro-1-(2,4-diisopropyl-3-pyridyl)-4-[(3R,5S)-3,5-dimethyl-4-prop-2-enoyl-piperazin-1-yl]-7-(o-tolyl)pyrido[2,3-d]pyrimidin-2-one]	–	–	0.091	> 7.5	0.187	–
C=CC(=O)N1C[C@H](C)N(c2nc(=O)n(-c3c(C)ccnc3C(C)C)c3nc(C4CCCCC4)c(Cl)cc23)C[C@H]1C (atropisomer, axis not shown; (M)) [Example 95-1, (M)-6-Chloro-7-cyclohexyl-4-[(2S,5R)-2,5-dimethyl-4-prop-2-enoyl-piperazin-1-yl]-1-(2-isopropyl-4-methyl-3-pyridyl)pyrido[2,3-d]pyrimidin-2-one]	–	–	0.053	> 7.5	0.318	–
C=CC(=O)N1C[C@H](C)N(c2nc(=O)n(-c3c(C(C)C)ncnc3C(C)C)c3nc(-c4ccc(F)cc4F)c(F)cc23)C[C@H]1C [Example 153, 7-(2,4-Difluorophenyl)-1-(4,6-diisopropylpyrimidin-5-yl)-4-[(2S,5R)-2,5-dimethyl-4-prop-2-enoyl-piperazin-1-yl]-6-fluoro-pyrido[2,3-d]pyrimidin-2-one]	> 7.5	0.264	0.38	–	–	–
C=CC(=O)N1[C@H](C)CN(c2nc(=O)n(-c3c(C)cc(N)nc3C(C)C)c3nc(-c4c(N)cccc4F)c(F)cc23)C[C@@H]1C (single isomer, unassigned) [Example 123-6]	> 7.5	–	0.231	–	0.133	–
C=CC(=O)N1C[C@@H](C)N(c2nc(=O)n(-c3c(C(C)C)ncnc3C(C)C)c3nc(-c4ccccc4F)c(F)cc23)[C@@H](C)C1 [Example 101-3, 1-(4,6-Diisopropylpyrimidin-5-yl)-4-[(2R,6S)-2,6-dimethyl-4-prop-2-enoyl-piperazin-1-yl]-6-fluoro-7-(2-fluorophenyl)pyrido [2,3-d]pyrimidin-2-one]	> 7.5	0.208	0.195	–	–	–
C=CC(=O)N1C[C@H](C)N(c2nc(=O)n(-c3c(C(C)C)ccnc3C(C)C)c3nc(-c4ccccc4C(C)C)c(Cl)cc23)C[C@H]1C (single isomer, unassigned) [Example 125-8]	–	–	0.113	5.05	0.137	–
